Reference: patent publication US12214015B2, “Use of c-type natriuretic peptide variants to treat osteoarthritis” (priority 2015, dated 2025)
Bridges are numbered along the chain shown (N, C = ends). Where no end group is shown, it is not given here.

Tests used:
in vivo = settings: rat
Experimental: (§1) As summarized in Table 6, groups of rats were treated with vehicle, Pro-Gly-CNP-37, or Gly-CNP-37. The dose route was intraarticular (IA) or subcutaneous (SC). The dose scheduling was either intraarticular administration three times per week (M, W, F) for 3 weeks (TIW×3W) or subcutaneous administration once daily for approximately 3 weeks (QD×3W). […] IA injections were given as a fixed dose whereas SC injections were given at a given dose per weight based on the most recently recorded body weight. For all rats, body weights were measured predose. For a 300-gram rat, the weekly IA dose regimen for the low, middle, and high levels was approximately equivalent to 15, 50, and 150 μg/kg/day, respectively.
(§2) The pharmacokinetic (PK) and pharmacodynamic (PD) properties of the CNP variants were evaluated. For the PK/PD analysis, timed blood collections were performed on 3 rats/group/time point as follows: 15, 30, 60, and 120 minutes post dosing for the IA groups and 5, 15, 30, 60, and 120 minutes post dosing for the SC groups. After blood collection, synovial lavage fluid (SLF, ˜50 μL/knee) was collected from each rat's left (normal) and right (operated) knee.
(§3) Individual plasma samples were analyzed for Pro-Gly-SNP-37 levels and mean concentration vs. time profiles were analyzed using a non-compartmental model for extravascular administration in Phoenix WinNonlin software.

[1] = rat, in vivo
Experimental: as §1, §2, §3

[2] = Body weight gain, late stage rat osteoarthritis study (Example 3); type: in vivo
Text: A model of late stage osteoarthritis was used to evaluate the efficacy of Pro-Gly-CNP-37 in pre-developed osteoarthritis (i.e., primary osteoarthritis). As described above in Examples 1 and 2, osteoarthritis was induced in the rear legs of rats by severing the meniscus. However, in contrast to Examples 1 and 2, the lesion pathology was allowed to progress for three weeks before IA or SC treatment with Pro-Gly-CNP-37 thereby simulating pre-existing OA (i.e., primary osteoarthritis). The overall study design is outlined in Table 9. In particular, male Lewis rats underwent a unilateral medial meniscal tear surgery on Study Day 0; administration of control vehicle or Pro-Gly-CNP-37 began on Study Day 21; and animals were euthanized at scheduled time points following the last dose on Study Day 22 (Groups 1-4) or Study Day 40 (Groups 5-11). The primary endpoints evaluated included histopathological examination of chondrocyte death/cartilage degeneration in the knee.

NPR-B = molecular target: T1, NPR-B (Homo sapiens, UniProt P20594); test: NPR-B signaling studies; type: biochemical
T1 sequence (P20594 23-1047): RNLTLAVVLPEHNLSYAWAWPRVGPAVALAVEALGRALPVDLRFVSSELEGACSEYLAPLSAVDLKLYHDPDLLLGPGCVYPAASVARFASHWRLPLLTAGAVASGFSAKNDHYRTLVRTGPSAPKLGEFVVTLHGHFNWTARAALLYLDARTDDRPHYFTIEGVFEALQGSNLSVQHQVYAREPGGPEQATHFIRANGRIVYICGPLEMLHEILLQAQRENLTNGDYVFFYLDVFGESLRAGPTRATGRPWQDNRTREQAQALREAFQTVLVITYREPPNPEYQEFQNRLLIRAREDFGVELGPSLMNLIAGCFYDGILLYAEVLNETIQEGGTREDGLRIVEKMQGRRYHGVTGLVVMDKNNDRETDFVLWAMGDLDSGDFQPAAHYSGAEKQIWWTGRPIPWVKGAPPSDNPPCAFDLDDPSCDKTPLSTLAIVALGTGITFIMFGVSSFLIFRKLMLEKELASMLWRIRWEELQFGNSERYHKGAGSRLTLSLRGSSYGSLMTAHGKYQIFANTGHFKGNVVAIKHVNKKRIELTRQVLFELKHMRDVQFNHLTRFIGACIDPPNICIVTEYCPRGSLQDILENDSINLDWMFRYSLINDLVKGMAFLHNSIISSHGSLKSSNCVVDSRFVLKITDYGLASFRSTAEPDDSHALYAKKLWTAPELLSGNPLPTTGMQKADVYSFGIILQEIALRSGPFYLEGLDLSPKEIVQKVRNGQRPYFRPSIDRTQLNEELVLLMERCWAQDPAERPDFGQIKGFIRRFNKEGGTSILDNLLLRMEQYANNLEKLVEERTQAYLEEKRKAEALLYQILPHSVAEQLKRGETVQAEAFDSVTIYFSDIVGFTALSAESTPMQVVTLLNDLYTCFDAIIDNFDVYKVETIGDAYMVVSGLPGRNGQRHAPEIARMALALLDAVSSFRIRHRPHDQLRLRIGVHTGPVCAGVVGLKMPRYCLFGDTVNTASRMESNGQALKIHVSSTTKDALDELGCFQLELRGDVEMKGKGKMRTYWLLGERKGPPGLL
Text: Natural substrates of NEP are small and natriuretic peptides (about 2.2 to about 3.2 kDa) are the largest of the natural substrates. According to X-ray crystallographic analyses, the NEP active-site is buried deep inside a central cavity, effectively restricting the size of substrate molecules to no more than about 3 kDa (Oefner et al., J. Mol. Biol., 296: 341-349 (2000)).
The present disclosure encompasses CNP variants designed for improved NPR-B selectivity based on a homology-based structural model of the NPR-B/CNP complex. Combining the experimental and computational structure data of natriuretic peptides bound to the various receptors with the published functional data, CNP variants were generated that continue to bind to NPR-B, but can potentially have reduced affinity to the NPR-C clearance receptor. […] Accordingly, CNP variants were generated to replace the corresponding Gly8 residue with a larger residue (Ser, Val, Thr, or Asn) to disrupt the CNP binding to NPR-C without affecting its binding to NPR-B. Further, one or more mutations were introduced at the C-terminal end of CNP, encompassing Gly15 to Gly21, which is predicted to interact with receptor-specific residues, based on the detailed structural analyses of the receptor/peptide complexes. […]

CC[C@H](C)[C@@H]1NC(=O)[C@H](CCCNC(=N)N)NC(=O)[C@H](CC(=O)O)NC(=O)[C@H](CC(C)C)NC(=O)[C@H](CCCCN)NC(=O)[C@H](CC(C)C)NC(=O)CNC(=O)[C@H](Cc2ccccc2)NC(=O)[C@@H](NC(=O)CNC(=O)[C@H](CCCCN)NC(=O)[C@H](CO)NC(=O)[C@H](CC(C)C)NC(=O)CNC(=O)[C@H](CCCCN)NC(=O)[C@H](CCCCN)NC(=O)[C@H](CC(N)=O)NC(=O)[C@H](C)NC(=O)CNC(=O)[C@H](CCCCN)NC(=O)[C@H](Cc2ccc(O)cc2)NC(=O)[C@H](CCCCN)NC(=O)[C@H](CCCNC(=N)N)NC(=O)[C@H](C)NC(=O)[C@H](CC(N)=O)NC(=O)[C@@H]2CCCN2C(=O)[C@H](Cc2c[nH]cn2)NC(=O)[C@H](CCC(=O)O)NC(=O)[C@H](CCC(N)=O)NC(=O)CNC(=O)[C@@H]2CCCN2)CSSC[C@@H](C(=O)O)NC(=O)CNC(=O)[C@H](CC(C)C)NC(=O)CNC(=O)[C@H](CO)NC(=O)[C@H](CCSC)NC(=O)[C@H](CO)NC(=O)CNC1=O [Pro-Gly-CNP-37]
AUC(0-t) (in vivo; 10.5 ug): 28.6 ng·h/mL | Cmax (in vivo; 10.5 ug): 33.8 ng/mL | Tmax (in vivo; 10.5 ug): 15 min | clearance (in vivo; 10.5 ug): 5.77 mL/min | half-life (in vivo; 10.5 ug): 27 min | AUC(0-t) (in vivo; 35.5 ug): 99 ng·h/mL | Cmax (in vivo; 35.5 ug): 110 ng/mL | Tmax (in vivo; 35.5 ug): 15 min | clearance (in vivo; 35.5 ug): 5.36 mL/min | half-life (in vivo; 35.5 ug): 34.9 min | AUC(0-t) (in vivo; 105 ug): 147 ng·h/mL | Cmax (in vivo; 105 ug): 357 ng/mL | Tmax (in vivo; 105 ug): 15 min | clearance (in vivo; 105 ug): 9.19 mL/min | half-life (in vivo; 105 ug): 38.1 min | AUC(0-t) (in vivo; sc, 150 ug/kg): 16.3 ng·h/mL | Cmax (in vivo; sc, 150 ug/kg): 28.4 ng/mL | Tmax (in vivo; sc, 150 ug/kg): 15 min | half-life (in vivo; sc, 150 ug/kg): 23.8 min | exposure vs dose [1]: generally dose-proportional | appearance in systemic circulation ([1]; sc): appeared rapidly in systemic circulation | CL ([1]; sc, 150 ug/kg): 121 mL/min | body weight gain ([2]; 105 μg IA vs IA vehicle): significantly reduced | body weight gain ([2]; 150 μg/kg SC vs SC vehicle): significantly reduced | body weight change (FIG. 27) ([2]; treated animals, IA and SC): reduced body weight change

CFGLKLDRIGSMSGLGC (disulfide 1-17 (inferred)) [CNP-17]
binding and activation of NPR-B compared with wtCNP-22 (NPR-B): can still bind and activate NPR-B similarly

DLRVDTKSRAAWARLLQEHPNARKYKGANKKGLSKGCFGLKLDRIGSMSGLGC (ends and bridges not checked; cysteine pairing not given here) [CNP-53]
binding and activation of NPR-B compared with wtCNP-22 (NPR-B): can still bind and activate NPR-B similarly
